Values quoted from earlier work as cited in US20030220374A1, “Compositions and methods of treatment involving peroxisome proliferator-activated receptor-gamma agonists and cyclooxygenase-2 selective inhibitors” (Pharmacia Corporation, priority 2002, published 2003).

Legend:
[1] = test system: vascular smooth muscle cell
human carotid arteries = details: in vivo
[2] = test system: hepatocellular cancer cells
human lung cancer cells = details: through the induction of apoptosis
PPARγ = target: T1, PPARγ (Homo sapiens, UniProt P37231)
T1 sequence (P37231 1-505): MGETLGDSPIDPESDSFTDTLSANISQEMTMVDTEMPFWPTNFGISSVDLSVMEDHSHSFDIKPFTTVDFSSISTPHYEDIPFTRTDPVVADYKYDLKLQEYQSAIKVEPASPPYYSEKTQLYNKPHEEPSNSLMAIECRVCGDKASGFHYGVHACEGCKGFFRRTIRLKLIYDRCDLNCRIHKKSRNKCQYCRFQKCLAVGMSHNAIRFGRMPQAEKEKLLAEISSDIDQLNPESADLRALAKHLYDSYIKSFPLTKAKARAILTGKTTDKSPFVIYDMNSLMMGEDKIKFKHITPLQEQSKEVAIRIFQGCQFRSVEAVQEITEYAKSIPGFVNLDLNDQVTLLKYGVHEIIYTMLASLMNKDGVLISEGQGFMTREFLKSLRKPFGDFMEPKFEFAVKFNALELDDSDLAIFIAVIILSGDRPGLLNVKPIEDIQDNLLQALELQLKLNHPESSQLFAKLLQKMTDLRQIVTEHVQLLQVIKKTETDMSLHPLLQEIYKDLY

[3] = test system: fibroblast growth factor-induced corneal angiogenesis; details: rats

Cc1c(C)c2c(c(C)c1O)CCC(C)(COc1ccc(CC3SC(=O)NC3=O)cc1)O2 (single isomer, unassigned; (+)) [Troglitazone, (+)-5-[[4-[(3,4-dihydro-6-hydroxy-2,5,7,8-tetramethyl-2H-1-benzopyran-2-yl)methoxy]phenyl]methyl]-2,4-thiazolidinedione]
vascular smooth muscle cell growth [1]: inhibits
hyperplasia of human carotid arteries (human carotid arteries): decreases
growth inhibition of hepatocellular cancer cells [2]: marked growth inhibition
growth of human lung cancer cells (human lung cancer cells): inhibited the growth

CCCCC/C=C\C=C1\C(=O)C=C[C@@H]1C/C=C\CCCC(=O)O [15-deoxy-Δ^12,14-prostaglandin J2, 11-oxo-prosta-5Z,9,12E,14Z-tetren-1-oic acid]
growth inhibition of hepatocellular cancer cells [2]: marked growth inhibition

COc1ccc2nc(COc3ccc(CC4SC(=O)NC4=O)cc3)n(C)c2c1 (stereo not shown) [CS-011, CI-1037]
EC50 (PPARγ): 160 nM

Cc1ccc(-c2cc(C(F)(F)F)nn2-c2ccc(S(N)(=O)=O)cc2)cc1 [Celecoxib, 4-[5-(4-methylphenyl)-3-(trifluoromethyl)-1H-pyrazol-1-yl]benzenesulfonamide]
inhibition of fibroblast growth factor-induced corneal angiogenesis [3]: potent inhibition
